Test results taken from PubChem BioAssay AID256 (DTP/NCI, 2004).
Toxic doses and inconclusive results are not listed.

Test system: CD2F1 mice, L1210 leukemia ip, survival T/C
Test: NCI In Vivo Anticancer Drug Screen. Data for tumor model L1210 Leukemia (intraperitoneal) in CD2F1 (CDF1) mice
Conditions: higher = longer survival
Procedure, shortened: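 Vehicle-treated tumor-bearing mice served as controls (C) for compound-treated mice (T). Reported figure is T divided by C.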

[1] = endpoint: mean survival time, dose: 5.0 mg/kg/injection, schedule: Q01DX009 (ip), vehicle: saline with Tween-80
[2] = endpoint: mean survival time, dose: 5.0 mg/kg/injection, schedule: Q04DX003 (ip), vehicle: saline with Tween-80
[3] = endpoint: mean survival time, dose: 100.0 mg/kg/injection, schedule: Q04DX003 (ip), vehicle: saline with Tween-80
[4] = endpoint: mean survival time, dose: 200.0 mg/kg/injection, schedule: Q04DX003 (ip), vehicle: saline with Tween-80
[5] = endpoint: mean survival time, dose: 400.0 mg/kg/injection, schedule: Q04DX003 (ip), vehicle: saline with Tween-80
[6] = endpoint: mean survival time, dose: 12.5 mg/kg/injection, schedule: Q01DX009 (ip), vehicle: saline with Tween-80
[7] = endpoint: mean survival time, dose: 25.0 mg/kg/injection, schedule: Q01DX009 (ip), vehicle: saline with Tween-80
[8] = endpoint: mean survival time, dose: 50.0 mg/kg/injection, schedule: Q01DX009 (ip), vehicle: saline with Tween-80
[9] = endpoint: mean survival time, dose: 100.0 mg/kg/injection, schedule: Q01DX009 (ip), vehicle: saline with Tween-80
[10] = endpoint: mean survival time, dose: 100.0 mg/kg/injection, schedule: Q01DX001 (ip), vehicle: saline
[11] = endpoint: mean survival time, dose: 200.0 mg/kg/injection, schedule: Q01DX001 (ip), vehicle: saline
[12] = endpoint: mean survival time, dose: 400.0 mg/kg/injection, schedule: Q01DX001 (ip), vehicle: saline
[13] = endpoint: mean survival time, dose: 100.0 mg/kg/injection, schedule: Q04DX002 (ip), vehicle: saline with Tween-80
[14] = endpoint: mean survival time, dose: 200.0 mg/kg/injection, schedule: Q04DX002 (ip), vehicle: saline with Tween-80
[15] = endpoint: mean survival time, dose: 400.0 mg/kg/injection, schedule: Q04DX002 (ip), vehicle: saline with Tween-80
[16] = endpoint: mean survival time, dose: 200.0 mg/kg/injection, schedule: Q01DX009 (ip), vehicle: saline with Tween-80
[17] = endpoint: mean survival time, dose: 50.0 mg/kg/injection, schedule: Q01DX001 (ip), vehicle: saline

## CC1(C)CSC(=S)N1
endpoint: mean survival time, dose: 2.5 mg/kg/injection, schedule: Q01DX009 (ip), vehicle: saline with Tween-80
  T/C: 98 % of control
[1]
  T/C: 95 % of control
[2]
  T/C: 103 % of control
endpoint: mean survival time, dose: 10.0 mg/kg/injection, schedule: Q01DX009 (ip), vehicle: saline with Tween-80
  T/C: 107 % of control
endpoint: mean survival time, dose: 10.0 mg/kg/injection, schedule: Q04DX003 (ip), vehicle: saline with Tween-80
  T/C: 92 % of control

## CCOC(=O)/C(C)=C(/N)c1ccccc1
[3]
  T/C: 98 % of control
[4]
  T/C: 95 % of control
[5]
  T/C: 92 % of control

## COc1ccc2nc3cc(Cl)ccc3c(NCCNCCNCCNc3c4ccc(Cl)cc4nc4ccc(OC)cc34)c2c1
endpoint: mean survival time, dose: 3.12 mg/kg/injection, schedule: Q01DX009 (ip), vehicle: Klucel (hydroxypropylcellulose) (HPC)
  T/C: 113 % of control
endpoint: mean survival time, dose: 3.12 mg/kg/injection, schedule: Q01DX009 (ip), vehicle: saline with Tween-80
  T/C: 96 % of control
endpoint: mean survival time, dose: 6.25 mg/kg/injection, schedule: Q01DX009 (ip), vehicle: Klucel (hydroxypropylcellulose) (HPC)
  T/C: 116 % of control
endpoint: mean survival time, dose: 6.25 mg/kg/injection, schedule: Q01DX009 (ip), vehicle: saline with Tween-80
  T/C: 96 % of control
endpoint: mean survival time, dose: 12.5 mg/kg/injection, schedule: Q01DX009 (ip), vehicle: Klucel (hydroxypropylcellulose) (HPC)
  T/C: 101 % of control
[6]
  T/C: 102 % of control
[7]
  T/C: 103 % of control
endpoint: mean survival time, dose: 50.0 mg/kg/injection, schedule: Q01DX009 (ip), vehicle: Klucel (hydroxypropylcellulose) (HPC)
  T/C: 90 % of control
[8]
  T/C: 106 % of control
[9]
  T/C: 106 % of control

## CNC(=O)NCC1OC(n2cnc3c(=O)[nH]c(N)nc32)C(O)C1O (stereo not drawn)
[10]
  T/C: 103 % of control
[11]
  T/C: 97 % of control
[12]
  T/C: 103 % of control

## Cc1cc(N=Nc2ccc(S(=O)(=O)[O-])cc2)cc(C(=O)[O-])c1[OH2+].Cc1cc(N=Nc2ccc(S(=O)(=O)[O-])cc2)cc(C(=O)[O-])c1[OH2+].NC1CCCCC1N.[Na+].[Pt+4]
endpoint: median survival time, dose: 6.25 mg/kg/injection, schedule: Q04DX003 (ip), vehicle: saline with Tween-80
  T/C: 172 % of control
endpoint: median survival time, dose: 6.25 mg/kg/injection, schedule: Q04DX003 (ip), vehicle: saline
  T/C: 172 % of control
endpoint: median survival time, dose: 12.5 mg/kg/injection, schedule: Q04DX003 (ip), vehicle: saline with Tween-80
  T/C: 344 % of control
endpoint: median survival time, dose: 12.5 mg/kg/injection, schedule: Q04DX003 (ip), vehicle: saline
  T/C: 253 % of control
endpoint: median survival time, dose: 25.0 mg/kg/injection, schedule: Q04DX003 (ip), vehicle: saline with Tween-80
  T/C: 313 % of control
endpoint: median survival time, dose: 25.0 mg/kg/injection, schedule: Q04DX003 (ip), vehicle: saline
  T/C: 289 % of control
endpoint: median survival time, dose: 50.0 mg/kg/injection, schedule: Q04DX003 (ip), vehicle: saline with Tween-80
  T/C: 106 % of control

## Nc1ncnc2c1[nH]c(=O)n2C1OC(CO)C(O)C1O (stereo not drawn)
[13]
  T/C: 95 % of control
[14]
  T/C: 107 % of control
[15]
  T/C: 95 % of control

## COC(=O)C1=NNC(C(=O)OC)=NN1
endpoint: mean survival time, dose: 12.5 mg/kg/injection, schedule: Q01DX009 (ip), vehicle: water
  T/C: 95 % of control
endpoint: mean survival time, dose: 25.0 mg/kg/injection, schedule: Q01DX009 (ip), vehicle: water
  T/C: 95 % of control
endpoint: mean survival time, dose: 50.0 mg/kg/injection, schedule: Q01DX009 (ip), vehicle: water
  T/C: 98 % of control
endpoint: mean survival time, dose: 100.0 mg/kg/injection, schedule: Q01DX009 (ip), vehicle: water
  T/C: 105 % of control
endpoint: mean survival time, dose: 200.0 mg/kg/injection, schedule: Q01DX009 (ip), vehicle: water
  T/C: 90 % of control

## Nc1ccc(C(=O)CCCN2CCCCC2)cc1
endpoint: mean survival time, dose: 12.5 mg/kg/injection, schedule: Q04DX003 (ip), vehicle: saline
  T/C: 107 % of control
endpoint: mean survival time, dose: 25.0 mg/kg/injection, schedule: Q04DX003 (ip), vehicle: saline
  T/C: 95 % of control
endpoint: mean survival time, dose: 50.0 mg/kg/injection, schedule: Q04DX003 (ip), vehicle: saline
  T/C: 107 % of control

## CC(=O)Oc1ccc2c3c(ccc2c1)C1CCC(=O)C1(C)CC3 (stereo not drawn)
[3]
  T/C: 97 % of control
[4]
  T/C: 92 % of control
[5]
  T/C: 97 % of control

## c1ccc(-c2csc3c4ccccc4c4ccccc4[n+]23)cc1
endpoint: mean survival time, dose: 0.5 mg/kg/injection, schedule: Q01DX009 (ip), vehicle: saline
  T/C: 104 % of control
endpoint: mean survival time, dose: 1.0 mg/kg/injection, schedule: Q01DX009 (ip), vehicle: saline
  T/C: 112 % of control
endpoint: mean survival time, dose: 2.0 mg/kg/injection, schedule: Q01DX009 (ip), vehicle: saline
  T/C: 112 % of control
endpoint: mean survival time, dose: 4.0 mg/kg/injection, schedule: Q01DX009 (ip), vehicle: saline
  T/C: 106 % of control
endpoint: mean survival time, dose: 8.0 mg/kg/injection, schedule: Q01DX009 (ip), vehicle: saline
  T/C: 101 % of control

## O=C(Nc1cccc(C(F)(F)F)c1)c1cccc(C(=O)Nc2cccc(C(F)(F)F)c2)c1
[6]
  T/C: 92 % of control
[7]
  T/C: 89 % of control
[8]
  T/C: 89 % of control

## Cc1cc(C)cc(OCCOCCOc2cc(C)cc(C)c2)c1
[3]
  T/C: 94 % of control
[4]
  T/C: 97 % of control
[5]
  T/C: 100 % of control

## NCCc1ccccn1
[3]
  T/C: 96 % of control
[4]
  T/C: 101 % of control

## COc1ccccc1NC(=O)Oc1cccc(C)c1
[13]
  T/C: 91 % of control
[14]
  T/C: 88 % of control
[15]
  T/C: 91 % of control

## COC1=[C]([Hg][Br])C(OC)OC1OC (stereo not drawn)
endpoint: mean survival time, dose: 5.0 mg/kg/injection, schedule: Q01DX001 (ip), vehicle: saline
  T/C: 98 % of control
endpoint: mean survival time, dose: 10.0 mg/kg/injection, schedule: Q01DX001 (ip), vehicle: saline
  T/C: 102 % of control
endpoint: mean survival time, dose: 20.0 mg/kg/injection, schedule: Q01DX001 (ip), vehicle: saline
  T/C: 110 % of control

## O=S(=O)(O)O.[Pt].c1ccc([PH+](c2ccccc2)c2ccccc2)cc1.c1ccc([PH+](c2ccccc2)c2ccccc2)cc1.c1ccc([PH+](c2ccccc2)c2ccccc2)cc1
endpoint: mean survival time, dose: 3.12 mg/kg/injection, schedule: Q04DX003 (ip), vehicle: distilled water + Tween-80
  T/C: 102 % of control
endpoint: mean survival time, dose: 6.25 mg/kg/injection, schedule: Q04DX003 (ip), vehicle: distilled water + Tween-80
  T/C: 102 % of control
endpoint: mean survival time, dose: 12.5 mg/kg/injection, schedule: Q04DX003 (ip), vehicle: distilled water + Tween-80
  T/C: 105 % of control
endpoint: mean survival time, dose: 25.0 mg/kg/injection, schedule: Q04DX003 (ip), vehicle: distilled water + Tween-80
  T/C: 102 % of control

## Cc1ccccc1-[n+]1nc(-c2ccccc2)nn1-c1ccccc1
endpoint: mean survival time, dose: 1.25 mg/kg/injection, schedule: Q01DX009 (ip), vehicle: saline sonified
  T/C: 104 % of control
[2]
  T/C: 98 % of control

## C#CC1(NC(=O)NC(C)(C)C)CCCCC1
[9]
  T/C: 93 % of control
[16]
  T/C: 86 % of control

## NC(=O)C(Br)Cc1cccc(Cl)c1 (stereo not drawn)
[17]
  T/C: 102 % of control
[10]
  T/C: 100 % of control
[11]
  T/C: 100 % of control
[12]
  T/C: 100 % of control

## CCCCOC(=O)c1ccc(NC(=O)NCCC)cc1
endpoint: mean survival time, dose: 100.0 mg/kg/injection, schedule: Q04DX003 (ip), vehicle: saline
  T/C: 101 % of control
endpoint: mean survival time, dose: 200.0 mg/kg/injection, schedule: Q04DX003 (ip), vehicle: saline
  T/C: 101 % of control
endpoint: mean survival time, dose: 400.0 mg/kg/injection, schedule: Q04DX003 (ip), vehicle: saline
  T/C: 97 % of control

## Cc1ccc(S(=O)(=O)OC2CCCCC2c2cccc(Cl)c2)cc1 (stereo not drawn)
endpoint: mean survival time, dose: 75.0 mg/kg/injection, schedule: Q01DX001 (ip), vehicle: other
  T/C: 92 % of control
endpoint: mean survival time, dose: 150.0 mg/kg/injection, schedule: Q01DX001 (ip), vehicle: other
  T/C: 88 % of control
endpoint: mean survival time, dose: 300.0 mg/kg/injection, schedule: Q01DX001 (ip), vehicle: other
  T/C: 101 % of control

## CCCCNCCC#N
[3]
  T/C: 102 % of control
[4]
  T/C: 95 % of control
[5]
  T/C: 98 % of control

## Nc1ccc2ccccc2c1S(=O)(=O)O
[9]
  T/C: 102 % of control
[16]
  T/C: 93 % of control
endpoint: mean survival time, dose: 400.0 mg/kg/injection, schedule: Q01DX009 (ip), vehicle: saline with Tween-80
  T/C: 90 % of control

## COc1cc(Cl)ccc1NC(=O)Oc1ccc(C)cc1[N+](=O)[O-]
[1]
  T/C: 93 % of control
[9]
  T/C: 96 % of control
[16]
  T/C: 96 % of control

## CC(C)/C=N\O
[17]
  T/C: 107 % of control
[10]
  T/C: 110 % of control
[11]
  T/C: 107 % of control

## C=C(Br)CNC(=O)C(C)(C)C
[6]
  T/C: 96 % of control
[7]
  T/C: 96 % of control
[8]
  T/C: 100 % of control
[9]
  T/C: 93 % of control

## COC1OC(C)CC(C)(C)O1 (stereo not drawn)
endpoint: mean survival time, dose: 100.0 mg/kg/injection, schedule: Q04DX002 (ip), vehicle: saline
  T/C: 89 % of control
endpoint: mean survival time, dose: 200.0 mg/kg/injection, schedule: Q04DX002 (ip), vehicle: saline
  T/C: 96 % of control
endpoint: mean survival time, dose: 400.0 mg/kg/injection, schedule: Q04DX002 (ip), vehicle: saline
  T/C: 100 % of control
